US9248148B2, “Mono (iron hydroxypyrone) and combination (iron hydroxypyrone and GI inflammation inhibiting agents) compositions for anaemia or H. pylori infections” (Iron Therapeutics Holdings AG, priority 2008, dated 2016)

Tested on: anaemia due to blood loss
Experiment: Patient 1: anaemia after surgical blood loss, treated while continuing Gaviscon (acid reducer)
Text: The patient had been taking Gaviscon™ which contains potassium bicarbonate as an acid reducer to reduce acid reflux. […] They continued to take Gaviscon™ but was also given ferrous sulphate tablets for their anaemia.

O=S(=O)([O-])[O-].[Fe+2] [ferrous sulphate]
correction of anaemia (patient 1, continuing Gaviscon (potassium bicarbonate)): failed to correct their anaemia
tolerability / side effects (patient 1, continuing Gaviscon, maltol and ferrous gluconate at 45 mg/day): serious side effects of gastric intolerance and severe headaches
